Assay results reported in the NIST ThermoML archive (doi:10.1016/j.jct.2018.12.031).

Columns and labels:
[1] = 100 kPa, Liquid, Frequency=3 MHz, Linear variable-path acoustic interferometer
[2] = xn = mol fraction of the nth substance listed; conditions: 100 kPa, Liquid; for speed of sound: Frequency=3 MHz, Linear variable-path acoustic interferometer; for mass density: Pycnometric method

N#Cc1ccccc1 [benzonitrile]
[1]
Conditions	speed of sound [m/s]
293.15 K	1436.9
298.15 K	1418.2
303.15 K	1400.7
308.15 K	1384
313.15 K	1368.2
318.15 K	1352.9

N#Cc1ccccc1 [benzonitrile] + C=C(C)C(=O)OCCCC
[2], x1 = 1
Conditions	mass density [kg/m3]	speed of sound [m/s]
293.15 K	1003.99	1436.9
298.15 K	1000.32	1418.2
303.15 K	996.65	1400.7
308.15 K	992.98	1384
313.15 K	989.31	1368.2
318.15 K	985.64	1352.9

C=C(C)C(=O)OC [methyl methacrylate] + N#Cc1ccccc1
[2], x2 = 0
Conditions	mass density [kg/m3]	speed of sound [m/s]
293.15 K	943.38	1200.5
298.15 K	937.64	1183.6
303.15 K	931.9	1168.5
308.15 K	926.16	1152.6
313.15 K	920.42	1135.4
318.15 K	914.67	1118.3

N#Cc1ccccc1 [benzonitrile] + C=C(C)C(=O)OCC
[2], x1 = 1
Conditions	mass density [kg/m3]	speed of sound [m/s]
293.15 K	1003.99	1436.9
298.15 K	1000.32	1418.2
303.15 K	996.65	1400.7
308.15 K	992.98	1384
313.15 K	989.31	1368.2
318.15 K	985.64	1352.9
